Laboratory results as given in patent US20230025067A1, “SOLID LOW FOAMING IN DISSOLUTION AND LOW PH ALL-PURPOSE CLEANER AND DISINFECTANT COMPOSITIONS” (Reckitt Benckiser LLC, priority 2021, published 2023).

Experiments:
[1] = system: Staphyloccocus aureus; conditions: 1 mg/mL solution in a 20% dimethyl sulfoxide water solution; cited from earlier work
[2] = system: germ; test: R&D germ kill testing of aqueous citric acid solutions; format: cell-based; conditions: aqueous solutions containing 2.5% w/v
Description: As discussed above, lemon juice contains 5-8% citric acid, amongst other potentially disinfecting ingredients like malic acid, ascorbic acid, and essential oils.

[3] = Tableting and stability of R&D formulations with other citric acid grades; format: physicochemical; conditions: R&D formulations similar to Formula E1

| Compound | activity against Staphyloccocus aureus [1] | germ kill results [2] | suitability for tablet formulation (hygroscopicity, tableting) [3] |
| --- | --- | --- | --- |
| O=C(O)CC(O)(CC(=O)O)C(=O)O [citric acid] | inactive | did not produce consistent or satisfactory germ kill results |  |
| O=C(O)CC(O)(CC(=O)O)C(=O)O [Citric acid anhydrous, citric acid anhydrous] |  |  | too hygroscopic for use in a tablet formulation |
